Source: patent US9315494B2, “Alkyl-amide-substituted pyridyl compounds useful as modulators of IL-12, IL-23 and/or IFNα responses” (Bristol-Myers Squibb Company, priority 2012, dated 2016)
Like-named read-outs stand apart in the source and are kept apart here.

Legend:
[1] = tested on: IL-23-stimulated STAT-dependent luciferase reporter in Kit225 T cells; assay: Kit225 T cell assay, IL-23 stimulated STAT-dependent luciferase reporter; type: cell-based, human
In short: (§1)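 Kit225 T cells carrying a stably integrated STAT-luciferase reporter, in RPMI with 10% heat-inactivated FBS, were stimulated with 20 ng/mL IL-23 or 200 U/mL IFNα for 5-6 h. Readout was luminescence from the luciferase reporter.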

[2] = tested on: IFNα-stimulated STAT-dependent luciferase reporter in Kit225 T cells; assay: Kit225 T cell assay, IFNα stimulated STAT-dependent luciferase reporter; type: cell-based, human
In short: as §1

[3] = Kit225 T cells, 20 ng/mL human recombinant IL-23, 5-6 hours, luciferase, read-out: IL23 (Kit225 T Cell Inhibition Data)
[4] = Kit225 T cells, 200 U/mL human recombinant IFNα, 5-6 hours, luciferase, read-out: IFNα (Kit225 T Cell Inhibition Data)
[5] = Homo sapiens, KIT225, read-out: IL23 (Kit225 T Cell Inhibition Data)
[6] = Homo sapiens, KIT225, read-out: IFNα (Kit225 T Cell Inhibition Data)

IC50 [1, 3] [nM] | IC50 [2, 4] [nM] | Structure (SMILES) | IC50 [1, 5] [nM] | IC50 [2, 6] [nM]
270 | 90 | CNC(=O)c1cnc(Nc2ccccn2)cc1Nc1ccc(F)cc1S(C)(=O)=O [Example 299] |  | 
280 | 130 | CNC(=O)c1cnc(Nc2cc(C)nc(C)n2)cc1Nc1ccccc1S(C)(=O)=O [Example 300] |  | 
3160 | 1460 | CNC(=O)c1cnc(Nc2ccc(-n3cc(F)ccc3=O)cn2)cc1Nc1ccccc1S(C)(=O)=O [Example 301] |  | 
2340 | 2650 | CNC(=O)c1cnc(Nc2ccc(F)cn2)cc1Nc1ccc(C(N)=O)cc1S(C)(=O)=O [Example 303] |  | 
1240 | 570 | CNC(=O)c1ccc(Nc2cc(Nc3ccc(F)cn3)ncc2C(=O)NC)c(S(C)(=O)=O)c1 [Example 304] |  | 
2650 | 3110 | CNC(=O)c1cnc(Nc2ccc(F)cn2)cc1Nc1ccc(C(=O)N2CCOCC2)cc1S(C)(=O)=O [Example 305] |  | 
2530 | 560 | CNC(=O)c1cnc(Nc2ccc(F)cn2)cc1Nc1ccc(C(=O)N(C)C)cc1S(C)(=O)=O [Example 306] |  | 
3740 | 1540 | CNC(=O)c1cnc(Nc2ccc(F)cn2)cc1Nc1ccc(C(=O)NC2CC2F)cc1S(C)(=O)=O (centres unmarked) [Example 307] |  | 
1860 | 1160 | CNC(=O)c1cnc(Nc2ccc(F)cn2)cc1Nc1ccc(C(=O)N2CC(F)(F)C2)cc1S(C)(=O)=O [Example 308] |  | 
1920 | 630 | CNC(=O)c1cnc(Nc2ccc(F)cn2)cc1Nc1ccc(C(=O)NC2CC2)cc1S(C)(=O)=O [Example 309] |  | 
190 | 160 | CNC(=O)c1cnc(Nc2ccc(F)cn2)cc1Nc1ccc(-c2ncco2)cc1S(C)(=O)=O [Example 311] |  | 
590 | 1020 | CNC(=O)c1cnc(Nc2ccc(F)cn2)cc1Nc1ccc(-c2nnco2)cc1S(C)(=O)=O [Example 312] |  | 
1330 | 500 | CNC(=O)c1cnc(Nc2ccc(F)cn2)cc1Nc1cccnc1OC [Example 313] |  | 
190 | 80 | CNC(=O)c1cnc(Nc2cc(C)nc(C)n2)cc1Nc1cccnc1OC [Example 314] |  | 
70 | 100 | CNC(=O)c1cnc(Nc2ccc(F)cn2)cc1Nc1cccc(C(=O)NC)c1OC [Example 316] |  | 
210 | 110 | CNC(=O)c1cnc(Nc2ccc(F)cn2)cc1Nc1cccc(C(=O)NC2CC2)c1OC [Example 317] |  | 
130 | 130 | CNC(=O)c1cnc(Nc2cc(C)c(F)cn2)cc1Nc1cccc(C(=O)NC2CC2)c1OC [Example 318] |  | 
90 | 10 | CNC(=O)c1cnc(Nc2cc(C)c(F)cn2)cc1Nc1cccc(C(N)=O)c1OC [Example 319] |  | 
50 | 30 | CNC(=O)c1cnc(Nc2cc(C)c(F)cn2)cc1Nc1cccc(C(=O)NC)c1OC [Example 320] |  | 
70 | 30 | CNC(=O)c1cnc(Nc2cc(C)c(F)cn2)cc1Nc1cccc(C(=O)NCCN2CCOCC2)c1OC [Example 322] |  | 
220 | 70 | CNC(=O)c1cnc(Nc2cc(C)c(F)cn2)cc1Nc1cccc(C(=O)NCC2CC2)c1OC [Example 324] |  | 
600 | 120 | CNC(=O)c1cnc(Nc2cc(C)c(F)cn2)cc1Nc1cccc(C(=O)Nc2ccccc2)c1OC [Example 328] |  | 

Second part, the molecule before the results:

Structure (SMILES) | IC50 [1, 3] [nM] | IC50 [2, 4] [nM] | IC50 [1, 5] [nM] | IC50 [2, 6] [nM]
CNC(=O)c1cnc(Nc2cc(C(=O)NC3CC3)ccn2)cc1Nc1ccc(Cl)cc1OC [Example 259] | 433 | 200 |  | 
CNC(=O)c1ccc(Nc2cc(Nc3ccc(Cl)cc3OC)c(C(=O)NC)cn2)nc1 [Example 260] | 2400 | 1760 |  | 
CNC(=O)c1cnc(Nc2ccc(C(=O)N(C)C)cn2)cc1Nc1ccc(Cl)cc1OC [Example 262] | 727 | 410 |  | 
CNC(=O)c1cnc(Nc2ccc(C(=O)N3CCOCC3)cn2)cc1Nc1ccc(Cl)cc1OC [Example 263] | 5060 | 3600 |  | 
CNC(=O)c1cnc(Nc2cc(C(N)=O)ccn2)cc1Nc1cc(F)cc(F)c1OC [Example 264] | 542 | 350 |  | 
CNC(=O)c1cnc(Nc2cc(C(=O)N3CCOCC3)ccn2)cc1Nc1cc(F)cc(F)c1OC [Example 265] | 319 | 210 |  | 
CNC(=O)c1cnc(Nc2cc(C(N)=O)ccn2)cc1Nc1ccc(F)cc1OC [Example 267] | 2640 | 1830 |  | 
CNC(=O)c1cnc(Nc2cc(C(=O)N3CCCC3)ccn2)cc1Nc1ccc(F)cc1OC [Example 268] | 785 | 740 |  | 
CNC(=O)c1cnc(Nc2cc(C(=O)N3CCOCC3)ccn2)cc1Nc1ccc(F)cc1OC [Example 269] | 1080 | 900 |  | 
CNC(=O)c1cnc(Nc2cc(C(=O)N3CCCC3)ccn2)cc1Nc1cc(F)cc(F)c1OC [Example 270] | 221 | 170 |  | 
CNC(=O)c1cnc(Nc2cc(C(=O)NCCOC)ccn2)cc1Nc1ccc(F)cc1OC [Example 271] | 1180 | 820 |  | 
CNC(=O)c1cnc(Nc2cc(C(=O)N(C)C)ccn2)cc1Nc1ccc(F)cc1OC [Example 272] | 1060 | 600 |  | 
CNC(=O)c1ccnc(Nc2cc(Nc3cc(F)cc(F)c3OC)c(C(=O)NC)cn2)c1 [Example 273] | 223 | 160 |  | 
CNC(=O)c1cnc(Nc2cc(C(=O)N(C)C)ccn2)cc1Nc1cc(F)cc(F)c1OC [Example 274] | 336 | 190 |  | 
CNC(=O)c1ccnc(Nc2cc(Nc3ccc(F)cc3OC)c(C(=O)NC)cn2)c1 [Example 275] | 1040 | 680 |  | 
CNC(=O)c1cnc(Nc2cc(C(N)=O)ccn2)cc1Nc1cccc(F)c1OC [Example 276] | 1340 | 1170 |  | 
CNC(=O)c1cnc(Nc2cc(C(=O)N(C)C)ccn2)cc1Nc1cccc(F)c1OC [Example 277] | 270 | 240 |  | 

Structure (SMILES) | IC50 [1, 3] [nM] | IC50 [2, 4] [nM] | IC50 [1, 5] [nM] | IC50 [2, 6] [nM]
CNC(=O)c1cnc(Nc2cc(C(=O)NCC#N)ccn2)cc1Nc1cccc(F)c1OC [Example 278] | 374 | 960 |  | 
CNC(=O)c1cnc(Nc2ccc(F)cn2)cc1Nc1ccccc1NS(C)(=O)=O [Example 279] | 476 | 140 |  | 
CNC(=O)c1cnc(Nc2ccc(F)cn2)cc1Nc1ccccc1NC(C)=O [Example 280] | 5050 | 5990 |  | 
CNC(=O)c1cnc(Nc2cc(C#N)ccn2)cc1Nc1ccccc1NS(C)(=O)=O [Example 281] | 140 | 140 |  | 
CNC(=O)c1cnc(Nc2ccc3ccccc3n2)cc1NC1CCCC1(C)F (centres unmarked) [Example 284] | 3000 | 3630 |  | 
CNC(=O)c1cnc(Nc2ccc3ccccc3n2)cc1NC1CCC(F)CC1 (centres unmarked) [Example 287] | 7940 | 10200 |  | 
CNC(=O)c1cnc(Nc2ccc3ccccc3n2)cc1NC1CCCC1C(N)=O (centres unmarked) [Example 288] | 3150 | 1310 |  | 
CNC(=O)c1cnc(Nc2ccc(C(F)(F)F)cn2)cc1NC1CCCCC1C(N)=O (centres unmarked) [Example 290] | 11400 | 6590 |  | 
CNC(=O)c1cnc(Nc2ccc(C(F)(F)F)cn2)cc1NC1CCCC1C(N)=O (centres unmarked) [Example 291] | 3730 | 3570 |  | 
CNC(=O)c1cnc(Nc2ccc3ccccc3n2)cc1NC1CCC(F)(F)CC1 [Example 292] | 4720 | 5600 |  | 
CNC(=O)c1cnc(Nc2ccc3ccccc3n2)cc1NC1CCC(F)(F)CC1O (centres unmarked) [Example 293] | 4780 | 11400 |  | 
CNC(=O)c1cnc(Nc2ccc3ccccc3n2)cc1NC1CCCC1(F)F (centres unmarked) [Example 294] |  |  | 6350 | 4900
CCNC(=O)c1cnc(Nc2ccc(F)cn2)cc1Nc1ccccc1C(N)=O [Example 295] | 7300 | 3290 |  | 
CCNC(=O)c1cnc(Nc2ccc(F)cn2)cc1Nc1ccccc1OC [Example 296] | 7160 | 2720 |  | 
CCNC(=O)c1cnc(Nc2ccc(F)cn2)cc1Nc1ccccc1S(C)(=O)=O [Example 297] | 250 | 600 |  | 
CNC(=O)c1cnc(Nc2ccc(F)cn2)cc1Nc1ccc(C#N)cc1S(C)(=O)=O [Example 310] |  |  | 1080 | 590
